Experimental data reported in BigSolDB 2.1.

CC(=O)Nc1ccc(O)cc1
Details | solubility (mole fraction)
in acetone, 292.95 K | 0.0327
in acetone, 302.85 K | 0.0411
in acetone, 311.95 K | 0.0534
in acetone, 320.65 K | 0.068
in ethanol, 295.15 K | 0.0549
in ethanol, 305.35 K | 0.0662
in ethanol, 314.15 K | 0.0737
in ethanol, 322.15 K | 0.0898
in ethanol, 332.95 K | 0.116
in ethanol, 341.25 K | 0.141
in ethanol, 350.05 K | 0.18
in ethanol, 360.15 K | 0.216
in isopropanol, 293.65 K | 0.0415
in isopropanol, 304.05 K | 0.0509
in isopropanol, 313.05 K | 0.0604
in isopropanol, 320.25 K | 0.0696
in isopropanol, 325.35 K | 0.0787
in isopropanol, 330.25 K | 0.0876
in isopropanol, 336.15 K | 0.105
in isopropanol, 343.45 K | 0.121
in isopropanol, 348.15 K | 0.136
in isopropanol, 353.05 K | 0.152
in isopropanol, 356.15 K | 0.159
in methanol, 293.45 K | 0.0594
in methanol, 303.55 K | 0.073
in methanol, 313.95 K | 0.0906
in methanol, 323.35 K | 0.111
in methanol, 330.95 K | 0.133
in methanol, 341.55 K | 0.175
in methanol, 354.15 K | 0.229
in n-butanol, 293.05 K | 0.0364
in n-butanol, 302.95 K | 0.0439
in n-butanol, 312.55 K | 0.0526
in n-butanol, 323.05 K | 0.0659
in n-butanol, 332.55 K | 0.0792
in n-butanol, 343.65 K | 0.099
in n-butanol, 353.15 K | 0.126
in n-butanol, 362.65 K | 0.152
in n-pentanol, 303.55 K | 0.038
in n-pentanol, 313.85 K | 0.0468
in n-pentanol, 323.65 K | 0.0571
in n-pentanol, 333.65 K | 0.073
in n-pentanol, 343.55 K | 0.0893
in n-pentanol, 353.75 K | 0.108
in n-pentanol, 361.55 K | 0.129
in n-propanol, 293.05 K | 0.0412
in n-propanol, 302.95 K | 0.0501
in n-propanol, 312.55 K | 0.061
in n-propanol, 322.55 K | 0.0735
in n-propanol, 332.25 K | 0.093
in n-propanol, 342.15 K | 0.117
in n-propanol, 351.25 K | 0.142
in n-propanol, 359.15 K | 0.165
